# Patent publication US20050261472A1, “Binding moieties for fibrin” (Dyax Corp., priority 1999, published 2005)
# Bridge positions count the residues as written; N and C are the ends. Peptide text beside a SMILES is read from it.
# Target: T1, DD(E) (Homo sapiens, UniProt P02671+P02675+P02679)
# T1 construct: host or cells: purchased fibrinogen clotted with thrombin, digested with plasmin, then purified by ammonium sulfate cuts and Sephacryl S200
# Assay: dissociation constant against fibrin-derived polypeptide DD(E)
# Type: binding
# Conditions: cyclic peptides of Table 12; unit inferred; read-out: Kd against DD(E)
# Experimental: The soluble fibrin-derived polypeptide DD(E) was prepared following a modification of a published method (Moskoitz and Budzynksi, Biochemistry, 33: 12937-12944 (1994) and references therein). Fibrinogen containing a Factor XIII trace impurity (1 g, Grade L; purchased from American Diagnostica) was dissolved in TBS buffer and dialyzed overnight against TBS containing 5 mM citrate. The fibrinogen concentration was adjusted to 3.0 mg/ml and CaCl2 was added to a concentration of 10 mM. Clotting of the fibrinogen was initiated by the addition of thrombin to 0.5 U/ml and the clot was incubated for 3 hours at 37° C. The clot was cut up with a spatula to release water and to concentrate the clot. The clot pieces were washed twice with TBS.Ca buffer (TBS containing 2 mM CaCl2) and were centrifuged at 4,000×g to compact the clots between washes. The clot material was resuspended in 250 ml TBS containing 25 mM CaCl2 and 2 K.I.U. plasmin per mg fibrin. The clots were digested overnight at 20° C. Undigested clot was removed by pipette, and the supernatant was shaken with 10 ml of Lysine Sepharose (Pharmacia) for 30 minutes and filtered to remove the resin. Aprotinin was added to the filtrate to a concentration of 500 U/μL. Ammonium Sulfate was added to 30% saturation and the precipitated protein was removed by centrifugation. More ammonium sulfate was added to the supernatant to a final concentration of 50% saturation, and the precipitated protein was concentrated by centrifugation. The pellets, containing DD(E), were resuspended in a small volume of buffer (50 mM Tris, 150 mM NaCl, 2 mM CaCl2) (<10 ml) and chromatographed on a Sephacryl S200 (Pharmacia) size exclusion column (5×100 cm) in the same buffer. Fractions of protein eluted from the column were assayed by SDS-PAGE for DD(E). DD(E) contains subunits of 55 kD (Fragment E) and 190 kD (Fragment DD). […]
# Dissociation constants were determined against DD(E) as described above.
# T1 sequence (P02671 130-216): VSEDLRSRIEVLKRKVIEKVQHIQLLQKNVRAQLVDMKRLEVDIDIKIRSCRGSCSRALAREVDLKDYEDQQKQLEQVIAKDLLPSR
# T1 sequence (P02675 164-491): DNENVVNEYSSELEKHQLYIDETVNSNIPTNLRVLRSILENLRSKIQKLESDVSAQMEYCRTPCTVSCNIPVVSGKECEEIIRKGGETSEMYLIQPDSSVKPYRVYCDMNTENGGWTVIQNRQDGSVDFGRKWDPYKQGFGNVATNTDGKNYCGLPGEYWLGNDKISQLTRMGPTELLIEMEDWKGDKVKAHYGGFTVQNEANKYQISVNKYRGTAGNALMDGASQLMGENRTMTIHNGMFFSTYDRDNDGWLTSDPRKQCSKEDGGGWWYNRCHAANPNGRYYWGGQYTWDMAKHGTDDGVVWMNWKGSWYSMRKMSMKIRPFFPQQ
# T1 sequence (P02679 114-432): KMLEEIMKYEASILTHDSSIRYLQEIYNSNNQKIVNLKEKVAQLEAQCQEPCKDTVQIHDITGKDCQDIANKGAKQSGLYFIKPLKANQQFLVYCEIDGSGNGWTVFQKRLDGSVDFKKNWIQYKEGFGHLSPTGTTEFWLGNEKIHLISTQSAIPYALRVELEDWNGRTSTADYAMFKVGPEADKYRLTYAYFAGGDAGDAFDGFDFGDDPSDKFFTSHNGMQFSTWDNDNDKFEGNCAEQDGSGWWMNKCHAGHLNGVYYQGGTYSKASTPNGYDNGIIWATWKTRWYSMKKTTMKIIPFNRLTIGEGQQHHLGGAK
# T1 sequence (P02671 36-97): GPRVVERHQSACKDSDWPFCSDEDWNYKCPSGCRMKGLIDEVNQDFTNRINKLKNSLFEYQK
# T1 sequence (P02675 45-152): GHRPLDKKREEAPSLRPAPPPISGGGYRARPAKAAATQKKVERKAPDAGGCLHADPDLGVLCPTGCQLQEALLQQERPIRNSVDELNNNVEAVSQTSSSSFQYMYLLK
# T1 sequence (P02679 27-88): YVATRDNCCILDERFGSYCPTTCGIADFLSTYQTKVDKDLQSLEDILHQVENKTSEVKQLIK
row,Kd [µM],Molecule
1,> 500,C[C@@H](O)[C@@H]1NC(=O)CNC(=O)[C@H](Cc2ccc(O)cc2)NC(=O)[C@H](Cc2ccc(O)cc2)NC(=O)[C@H](CC(=O)O)NC(=O)CNC(=O)CNC1=O [(II)] (cyclo(GDYYGTG))
2,179,side-chain-to-side-chain cyclic peptide bearing a central Tyr-Tyr-Gly-Thr moiety [(III)]

# Same assay, conditions: read-out: Kd DD(E)
row,Molecule,Kd [µM]
1,CC(C)C[C@H](NC(=O)[C@@H]1CSSC[C@H](N)C(=O)N[C@@H](CC(=O)O)C(=O)N[C@@H](Cc2ccc(O)cc2)C(=O)N[C@@H](Cc2ccc(O)cc2)C(=O)NCC(=O)N[C@@H]([C@@H](C)O)C(=O)N1)C(N)=O [compound 33] (H-CDYYGTCL-NH2; disulfide 1-7),22
2,"CC(C)C[C@H](NC(=O)[C@@H]1CSSC[C@H](NC(=O)[C@@H]2CCCN2C(=O)[C@@H](N)CC(C)C)C(=O)N[C@@H](CC(=O)O)C(=O)N[C@@H](Cc2ccc(O)cc2)C(=O)N[C@@H](Cc2ccc(O)cc2)C(=O)NCC(=O)N[C@@H](C(C)C)C(=O)N1)C(=O)N[C@@H](CC(=O)O)C(N)=O [SEQ ID NO: 51, LPCDYYGVCLD] (H-LPCDYYGVCLD-NH2; disulfide 3-9)",28
3,C[C@@H](O)[C@@H]1NC(=O)CNC(=O)[C@H](Cc2ccc(O)cc2)NC(=O)[C@H](Cc2ccc(O)cc2)NC(=O)[C@H](CC(=O)O)NC(=O)[C@@H](N)CSSC[C@@H](C(N)=O)NC1=O [compound 34] (H-CDYYGTC-NH2; disulfide 1-7),38
4,"CC(C)C[C@H](NC(=O)[C@@H]1CSSC[C@H](NC(=O)[C@@H]2CCCN2C(=O)[C@@H](N)CC(C)C)C(=O)N[C@@H](CC(=O)O)C(=O)N[C@@H](Cc2ccc(O)cc2)C(=O)N[C@@H](Cc2ccc(O)cc2)C(=O)NCC(=O)N[C@@H](CN)C(=O)N1)C(=O)N[C@@H](CC(=O)O)C(N)=O [SEQ ID NO: 49, LPCDYYGDprCLD]",> 500
5,"CC(C)C[C@H](NC(=O)[C@@H]1CSSC[C@H](NC(=O)[C@@H]2CCCN2C(=O)[C@@H](N)CC(C)C)C(=O)N[C@@H](CC(=O)O)C(=O)N[C@@H](Cc2ccc(O)cc2)C(=O)N[C@@H](Cc2ccc(O)cc2)C(=O)NCC(=O)N[C@@H](CO)C(=O)N1)C(=O)N[C@@H](CC(=O)O)C(N)=O [SEQ ID NO: 48, LPCDYYGSCLD] (H-LPCDYYGSCLD-NH2; disulfide 3-9)",26
6,"CC(C)C[C@H](N)C(=O)N1CCC[C@H]1C(=O)N[C@H]1CSSC[C@@H](C(=O)N[C@@H](C)C(=O)N[C@@H](CC(=O)O)C(N)=O)NC(=O)[C@H]([C@@H](C)O)NC(=O)CNC(=O)[C@H](Cc2ccc(O)cc2)NC(=O)[C@H](Cc2ccc(O)cc2)NC(=O)[C@H](CC(=O)O)NC1=O [SEQ ID NO: 47, LPCDYYGTCAD] (H-LPCDYYGTCAD-NH2; disulfide 3-9)",10.1
7,CC(C)C[C@H](NC(=O)[C@@H]1CSSC[C@H](NC(=O)[C@@H]2CCCN2)C(=O)N[C@@H](CC(=O)O)C(=O)N[C@@H](Cc2ccc(O)cc2)C(=O)N[C@@H](Cc2ccc(O)cc2)C(=O)NCC(=O)N[C@@H]([C@@H](C)O)C(=O)N1)C(N)=O [compound 32] (H-PCDYYGTCL-NH2; disulfide 2-8),50
8,H-DYYGT-NH2 [compound 35],> 100

# Continued, values first:
row,Kd [µM],Molecule
1,2,"CC[C@H](C)[C@H](NC(=O)[C@H](Cc1c[nH]cn1)NC(=O)[C@@H]1CSSC[C@H](NC(=O)[C@H](Cc2c[nH]cn2)NC(=O)[C@@H](N)Cc2ccccc2)C(=O)N2CCC[C@H]2C(=O)N[C@@H](Cc2ccc(O)cc2)C(=O)N[C@@H](CC(=O)O)C(=O)N[C@@H](CC(C)C)C(=O)N1)C(N)=O [SEQ ID NO: 60, FHCPYDLCHI] (H-FHCPYDLCHI-NH2; disulfide 3-8; N-terminus and C-terminus assumed)"
2,2.9,"CC(C)C[C@H](NC(=O)[C@@H]1CSSC[C@H](NC(=O)[C@H](C)NC(=O)[C@@H](N)CC(C)C)C(=O)N[C@@H](CC(=O)O)C(=O)N[C@@H](Cc2ccc(O)cc2)C(=O)N[C@@H](Cc2ccc(O)cc2)C(=O)NCC(=O)N[C@@H]([C@@H](C)O)C(=O)N1)C(=O)N[C@@H](CC(=O)O)C(N)=O [SEQ ID NO: 41, LACDYYGTCLD] (H-LACDYYGTCLD-NH2; disulfide 3-9)"
3,4.5,"CC(C)C[C@H](NC(=O)[C@@H]1CSSC[C@H](NC(=O)[C@@H]2CCCN2C(=O)[C@@H](N)CC(C)C)C(=O)N[C@@H](CC(=O)O)C(=O)N[C@@H](C)C(=O)N[C@@H](Cc2ccc(O)cc2)C(=O)NCC(=O)N[C@@H]([C@@H](C)O)C(=O)N1)C(=O)N[C@@H](CC(=O)O)C(N)=O [SEQ ID NO: 43, LPCDAYGTCLD] (H-LPCDAYGTCLD-NH2; disulfide 3-9)"
4,2.63,"CC[C@H](C)[C@H](NC(=O)[C@H](Cc1c[nH]cn1)NC(=O)[C@@H]1CSSC[C@H](NC(=O)[C@H](Cc2c[nH]cn2)NC(=O)[C@H](Cc2ccccc2)NC(=O)[C@@H](N)Cc2c[nH]c3ccccc23)C(=O)N2CCC[C@H]2C(=O)N[C@@H](Cc2ccc(O)cc2)C(=O)N[C@@H](CC(=O)O)C(=O)N[C@@H](CC(C)C)C(=O)N1)C(=O)N[C@@H](CC(C)C)C(N)=O [SEQ ID NO: 21, W F H C P Y D L C H I L] (H-WFHCPYDLCHIL-NH2; disulfide 4-9; N-terminus and C-terminus assumed)"
5,3.8,"CC[C@H](C)[C@H](NC(=O)[C@H](Cc1c[nH]cn1)NC(=O)[C@@H]1CSSC[C@H](NC(=O)[C@@H](N)Cc2c[nH]cn2)C(=O)N2CCC[C@H]2C(=O)N[C@@H](Cc2ccc(O)cc2)C(=O)N[C@@H](CC(=O)O)C(=O)N[C@@H](CC(C)C)C(=O)N1)C(=O)N[C@@H](CC(C)C)C(N)=O [SEQ ID NO: 59, HCPYDLCHIL] (H-HCPYDLCHIL-NH2; disulfide 2-7)"
6,9.8,"CC(C)C[C@H](NC(=O)[C@@H]1CSSC[C@H](NC(=O)[C@@H]2CCCN2C(=O)[C@@H](N)CC(C)C)C(=O)N[C@@H](CO)C(=O)N[C@@H](Cc2ccc(O)cc2)C(=O)N[C@@H](Cc2ccc(O)cc2)C(=O)NCC(=O)N[C@@H]([C@@H](C)O)C(=O)N1)C(=O)N[C@@H](Cc1c[nH]cn1)C(N)=O [SEQ ID NO: 12, LPCSYYGTCLH] (H-LPCSYYGTCLH-NH2; disulfide 3-9)"
7,4,"CC(C)C[C@H](NC(=O)[C@@H]1CSSC[C@H](NC(=O)[C@@H]2CCCN2C(=O)[C@@H](N)CCCNC(=N)N)C(=O)N[C@@H](CC(N)=O)C(=O)N[C@@H](Cc2ccc(O)cc2)C(=O)N[C@@H](Cc2ccc(O)cc2)C(=O)NCC(=O)N[C@@H]([C@@H](C)O)C(=O)N1)C(=O)N[C@@H](Cc1c[nH]cn1)C(N)=O [SEQ ID NO: 16, RPCNYYGTCLH] (H-RPCNYYGTCLH-NH2; disulfide 3-9)"
8,0.94,"CC[C@H](C)[C@H](NC(=O)[C@H](Cc1c[nH]c2ccccc12)NC(=O)[C@@H]1CSSC[C@H](NC(=O)[C@H](CCC(=O)O)NC(=O)[C@@H](N)Cc2c[nH]c3ccccc23)C(=O)N2CCC[C@H]2C(=O)N[C@@H](Cc2ccc(O)cc2)C(=O)NCC(=O)N[C@@H](CC(C)C)C(=O)N1)C(=O)N[C@@H](CCC(N)=O)C(N)=O [SEQ ID NO: 61, WECPYGLCWIQ] (H-WECPYGLCWIQ-NH2; disulfide 3-8)"

# Same assay, conditions: sequences of phage isolates from TN10-9 and TN6-6 libraries (Table 5); read-out: Kd DD(E)
row,Kd [µM],Molecule
1,1.4,WFHCPYDLCHIL [compound 21]
2,2.7,NHGCYNSYGVPYCDYS [compound 18]
3,0.74,QWECPYGLCWIQ [compound 22]
